In patent US20080014585A1, “SYNERGISTIC ACTIVATION OF REGULATORY ELEMENTS BY REL PROTEINS AND A STEROID RECEPTOR” (N.V. Organon, priority 2000, published 2008):
Entries after “also recorded” stand apart in the source; their conditions may differ.

What was measured:
ERα = ERα (Homo sapiens, UniProt P03372); conditions: cited from earlier work
human ERα = target: T1, human ERα (Homo sapiens, UniProt P03372); assay: 5-HT1A receptor promoter (-901luc) luciferase reporter, COS-1 cells cotransfected with NF-κB (p50, p65) and ERα; assay type: cell-based
T1 construct: expressed in transfected cells; host or cells: COS-1 (monkey)
T1 sequence (P03372 1-595): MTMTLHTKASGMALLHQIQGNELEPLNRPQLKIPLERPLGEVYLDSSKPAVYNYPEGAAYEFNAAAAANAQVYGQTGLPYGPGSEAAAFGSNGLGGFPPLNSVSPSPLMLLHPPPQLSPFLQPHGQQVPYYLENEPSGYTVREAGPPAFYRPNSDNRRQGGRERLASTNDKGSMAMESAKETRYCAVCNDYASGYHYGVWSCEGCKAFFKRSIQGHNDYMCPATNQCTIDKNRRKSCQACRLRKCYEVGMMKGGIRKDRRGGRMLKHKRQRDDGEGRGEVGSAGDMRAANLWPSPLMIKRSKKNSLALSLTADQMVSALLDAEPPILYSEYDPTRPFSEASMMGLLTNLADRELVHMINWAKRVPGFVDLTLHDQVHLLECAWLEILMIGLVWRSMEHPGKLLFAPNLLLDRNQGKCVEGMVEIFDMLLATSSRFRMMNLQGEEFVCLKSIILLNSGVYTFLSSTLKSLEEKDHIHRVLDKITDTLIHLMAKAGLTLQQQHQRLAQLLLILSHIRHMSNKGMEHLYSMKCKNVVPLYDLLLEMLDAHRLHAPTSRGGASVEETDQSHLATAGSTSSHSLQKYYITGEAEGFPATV
Source text: Depicted is the induction of luciferase activity evoked by NF-κB over cells transfected with empty expression vector. Bars represent the mean of at least three independent experiments ±S.D. (B) COS-1 cells were transiently transfected with 4×NF-κ B(HIV)tkluc in combination with empty expression vector or expression vectors encoding the p50 and p65 subunits of NF-κB and expression vectors encoding ERα or ERβ. Cells were either untreated (white bars) or treated with 10^−8 M E2 (black bars) for 24 h. Depicted is the induction of luciferase activity evoked by NF-κB over cells transfected with empty expression vector. Bars represent the mean of at least three independent experiments ±S.D.
(A) COS-1 cells were transiently transfected with the −901luc reporter construct together with empty expression vector or expression vectors encoding the p50 and p65 subunits of NF-κB in combination with expression vectors encoding ERα and treated with E2, OH-T or ICI for 24 h as indicated. Depicted is the induction of luciferase activity evoked by NF-κB over cells transfected with empty expression vector. Bars represent the mean of at least three independent experiments ±S.D. FIG. 4. […] Depicted is the induction of luciferase activity evoked by the NF-κB subunits over cells transfected with empty expression vector. Bars represent the mean of at least three independent experiments ±S.D.
Cell Culture. […]

classical ERE = conditions: transactivation experiments, reference 22; cited from earlier work

4-hydroxytamoxifen
transcription of genes under the control of an AP-1 element with ERα (ERα): activated
enhancement of 5-HT1A receptor promoter activity by ERα and NF-κB (human ERα): further induced; also recorded: as potent as E2
transcription of genes regulated by a classical ERE (classical ERE): inhibited transcription
